In a melting point compilation (Tetko et al.; mined from patent text by program, amines drawn as free bases though some values may be those of a salt):

Compound	melting point
CC(=O)NC[C@H]1CN(c2cc(F)c(N3CCS(=O)(=O)CC3)c(F)c2)C(=O)O1	187 to 190 °C
COC(=O)c1cc2cc([N+](=O)[O-])c(OCc3ccccc3)cc2[nH]1	184 to 187 °C
Cc1cc(C)c(-n2c(C)c(C)c3c(C#N)nc(C)nc32)c(C)c1	188 to 190 °C
CCOC(=O)c1sc(N)nc1-c1ccc(Cl)cc1	198 to 200 °C
CC1OC(C)(C)c2cc(-c3ccc(C#N)n3C(=O)OC(C)(C)C)ccc2N1C(=O)OCC1c2ccccc2-c2ccccc21 (centres undefined)	135 to 136 °C
O=C(CC1CCOCC1)N[C@H]1CC[C@H](CCN2CCC(c3ccc(F)c4occc34)CC2)CC1	188 °C
O=C1CCc2cccc3c2N1C(=O)CC3	136 to 140 °C
CC1(C)c2ccc(C(F)CN3CCN(c4nsc5ccccc45)CC3)cc2C(C)(C)C1O (centres undefined)	49 to 54 °C
O=C(NCC1CCCCC1)c1c(Cl)ccc2nc(N3CC(O)C3)ccc12	206 to 208 °C
COc1cn(-c2ccc(-c3ccccn3)cc2F)nc(-c2ccnn2-c2ccccc2)c1=O	206 to 208 °C
O=C1c2c(-c3ccccc3F)noc2CCC1CCCN1CCN(C(c2ccc(F)cc2)c2ccc(F)cc2)CC1 (centres undefined)	95 to 97 °C
CCCCOc1ccc(S(=O)(=O)C2(C(=O)NO)CCN(CCCOc3ccccc3)CC2)cc1	84 °C
COc1cc(OC)c(C2C=CCN(C)C2)c(OC)c1 (centres undefined)	118 to 122 °C
NCC1Cc2cc(F)cc(-c3cc(Cl)ccc3Cl)c2O1 (centres undefined)	165 to 166 °C
Cc1cccc(C)c1NC(=O)CCN1CCN(CCCC(c2ccc(F)cc2)c2ccc(F)cc2)C(C(N)=O)C1 (centres undefined)	121 °C
CC1CC(=O)NN=C1c1ccc(NN=C(C#N)C#N)cc1 (single isomer, unassigned; (+))	210 to 214 °C
CNS(=O)(=O)c1c(C)cc(OC)cc1C	131 °C
CC(c1ccccc1)N1c2ccccc2Oc2ccccc21 (centres undefined)	100 °C
Cc1ccc(-c2ccc(C(=O)Nc3ccc4nc(CN5C(C)(C)CCCC5(C)C)ccc4c3)cn2)cc1	246 to 247 °C
CC(C)C(c1ccccc1O)N1CCOCC1 (centres undefined)	73 to 77 °C
COC(=O)C(O)c1ccc(Cl)cc1 (centres undefined)	55 °C
CCCn1c(=O)c2[nH]c([C@H](C)c3ccccc3)nc2n(CCC)c1=O	136 to 137 °C
CCOC(=O)N1CCC2C(O)CCCC21 (centres undefined)	153 to 155 °C
COC(=O)[C@H](CC(=O)c1ccc2oc3ccccc3c2c1)NC(=O)c1ccccc1	65 to 70 °C
CCC1c2[nH]c3ccccc3c2CC(C(=O)O)N1C(=S)SC (centres undefined)	155 to 157 °C

Compound	melting point
CCOC(=O)c1cnc2c(c(C)nc3cc(C)nn32)c1N1CCN(C)CC1	158 to 159 °C
CCC(=O)N1Cc2cn[nH]c2-c2cc([N+](=O)[O-])ccc21	219 to 221 °C
CCOc1cc(OCc2ccc(OCc3nc(-c4ccccc4)oc3C)cc2)ccc1CCC(=O)O	135 to 136 °C
c1ccc(-c2cc3ncnc(Nc4ccc(NCc5c[nH]c6ccccc56)cc4)c3s2)cc1	259 to 261 °C
O=C1CCN(Cc2ccccc2O)CC1C(c1ccc(F)cc1)c1ccc(F)cc1 (centres undefined)	151 to 152 °C
O=C(NCCCO)c1ccnc2ccccc12	201 to 202 °C
Nc1cc2c(cc1N)C1CC2CN(C(=O)C(F)(F)F)C1	129 to 131 °C
COc1ccc(C2(O)CC3CCC(C2)N3C)cc1 (centres undefined)	162 °C
CC(C)C(=N)Nc1cc(F)ccc1N1CCOCC1	142 °C
CC(=O)Nc1nc(CCc2ccc(NC(NC(=O)OC(C)(C)C)NC(=O)OC(C)(C)C)cc2)c(Cl)s1	220 to 221 °C
CNc1nc(C2C(=O)Nc3ccccc32)c2cn(C3CCCC3)nc2n1 (centres undefined)	> 300 °C
COc1ccc(C2=NN(CCCCCCCCBr)C(=O)[C@H]3CCCC[C@@H]23)cc1OC (relative stereo)	58 to 60 °C
C=C(OCC1(N2CCN(C(=O)OC(C)(C)C)CC2)Cc2ccccc2C1)c1cc(C)cc(C)c1	128 °C
CC1=CC(O)C(OC(=O)c2ccccc2)C(C)(C)CC1OC(=O)c1ccccc1 (centres undefined)	142 to 144 °C
CC#Cc1ncn2c1CN(C)C(=O)c1ccccc1-2	206 to 207 °C
CCNC(=NS(=O)(=O)c1ccc(C#N)cc1)N1CC(CC)C=N1 (centres undefined)	146 to 149 °C
CCOC(=O)c1nn2c(-c3ccc(OC)cc3)nnc2c2ccccc12	180 to 182 °C
O=C(O)C1=Cc2cc(C(F)(F)C(F)(F)F)ccc2OC1C(F)(F)F (centres undefined)	162 to 165 °C
CCOC(CNN)OCC	126 to 127 °C
CCC=Cc1c(C(C)C)nc(C(C)C)c(CO)c1-c1ccc(F)cc1	115 to 117 °C
COc1ccc(CC2CCN(C(=O)C(=O)Nc3ccc4c(c3)CC(=O)N4)CC2)cc1	215 to 217 °C
NC(=O)COC(=O)c1ccc(O)cc1	250 to 255 °C
COc1ccnc(C(=O)N[C@H]2COC(=O)[C@H](Cc3ccccc3)[C@@H](O)[C@H](C)OC2=O)c1OCc1ccccc1	110 to 114 °C
CC(=NO)C(C)(C)NOCCNC(C)(C)C(CCN1C(=O)c2ccccc2C1=O)=NO	74 to 75 °C
CON(C)C(=S)Nc1ccc(OCCc2ccccc2)c(Cl)c1	116 to 117 °C

Compound	melting point
O=C(Nc1ccc(C(=O)N2Cc3ccccc3Cc3ccccc32)cc1)c1ccc(Cl)c(Cl)c1	212 to 215 °C
O=C1C(=C(O)Cc2ccccc2)SC(=S)N1c1ccc(Cl)cc1	134 to 137 °C
CC1=CC(OC(=O)c2ccc([N+](=O)[O-])cc2Cl)C(O)C(C)(C)CC1=O (centres undefined)	108 to 110 °C
COC(=O)c1cc(N)ccc1OC(C)=O	99 to 100 °C
CS(=O)(=O)Nc1ccc(OCCCN2C(=O)c3ccccc3C2=O)cc1	176 to 178 °C
COc1ccc(N2C3CCC(C(=O)C3)C2c2ccc(Cl)cc2)cc1OC (centres undefined)	42 to 43 °C
Cc1cccc(-c2c(CC(=O)Nc3ccc(F)cc3C(F)(F)F)c(=O)oc3cc4c(cc23)CC=C4)c1	196 to 197 °C
C=C(C)Cc1c(O)cc(C(C)(C)C)c(OC(C)=O)c1C(C)(C)C	102 °C
Cn1c(=O)c2c(I)cccc2n2cnc(-c3noc(C4CC4)n3)c12	217 to 220 °C
O=C(Nc1ccc(Oc2ccc(Cl)cc2)nc1)N1CCc2ccccc2CC1	135 to 137 °C
COC(=O)c1cnc(N2CCN(CC3CC3)C2=O)s1	124 to 126 °C
Cc1cc(CCCCCOc2ccc(-c3nccs3)cc2)on1	78 to 80 °C
CCOC(=S)c1cc(Cl)c(C)c(-c2cc(C)no2)c1C	79 to 82 °C
CSc1c(S(N)(=O)=O)ccn1C	135 to 137 °C
CC1(c2ccccc2)Cc2cc(OCC#N)c(Cl)c(Cl)c2C1=O (centres undefined)	163 to 165 °C
CCCC(Cl)(Cl)C(NC(=O)c1ccc(Cl)cc1)Nc1c(Nc2cccnc2)c(=O)c1=O (centres undefined)	258 to 259 °C
C#CCn1c(-c2cc(Cl)nc(Cl)c2)nc(CC)c(OC)c1=O	112 to 115 °C
CC1(C)Oc2ccc(C(=O)CN=[N+]=[N-])cc2S1	52 to 53 °C
COc1cccc2c1nnn2C1CCCCC1	118 to 120 °C
CC(=O)Nc1ccc(C)c(C=O)n1	202 °C
CC(C)(C)CNC(=O)C1=C(C(=O)Nc2cc(OC3CCCC3)c(Cl)cc2F)CCCC1	173 to 175 °C
C1=C(CCC2CCCO2)CCN(Cc2c[nH]c3ncccc23)C1 (centres undefined)	70 to 72 °C
OCc1c(CO)c(-c2ccc(F)c(F)c2)n2c1Cc1ccccc1C2	145 to 146 °C
CC(=O)Oc1ccc(N2CCN(C(C)=O)CC2)c(Br)c1	75 °C
COc1ccc(C2=NN(CC(=O)Nc3ccc(C4=NNC(=O)CC4C)cc3)C(=O)C3CC=CCC23)cc1OC (centres undefined)	139 to 141 °C

Compound	melting point
CC(=O)N(C)c1nc(C)co1	27 to 29 °C
CCCCCCCCCc1cc2ccc(C(=O)O)cc2[nH]1	166 to 169 °C
O=C(O)C(OCOc1ccc(-c2ccc(Cl)cc2)cc1)(C(F)(F)F)C(F)(F)F	134 to 135 °C
COC(=O)C(C)Oc1ccc(Oc2ccc3ccccc3n2)cc1 (centres undefined)	95 to 100 °C
CNC(=O)N1N=C(c2ccc([N+](=O)[O-])cc2)c2cc(Cl)ccc2CC1C (centres undefined)	190 to 192 °C
O=C(Nc1cccc(Cl)c1)C1=Cc2ccccc2S1=O (centres undefined)	257 to 258 °C
CN1CCN(c2sc(-c3nc4ccccc4c(=O)n3-c3ccc(Cl)cc3)cc2-c2ccc(S(C)(=O)=O)cc2)CC1	232 to 233 °C
CCON=C(C(C)=NOCc1ccccc1C(=NOC)C(=O)OC)c1ccc(Oc2ccc(Cl)cc2)cc1	90 to 93 °C
N=C(Nc1ccc2[nH]cc(-c3ccncc3)c2c1)c1cccs1	183 to 185 °C
CN(N)C(=S)Nc1ccc(F)cc1	148 to 150 °C
Cc1sc2ncc(C(O)CCc3ccccc3)n2c1C (centres undefined)	153 to 154 °C
Cc1nc(N2CCN(c3ccccc3)C2=O)sc1C(=O)NCc1ccccc1	234 to 236 °C
CN1C(=O)CCC1(O)c1ccc(Cl)c(S(=O)(=O)Cl)c1 (centres undefined)	112 to 114 °C
ClCCCn1cc2cc(OCc3ccccc3)ccc2n1	97 to 98 °C
COC(=O)COc1ccc(NC(=O)c2cc(C(C)C)c(C(C)C)o2)cc1	104 to 105 °C
O=C1C(Cl)=Cc2c(Cl)cc3c4c(c(Cl)cc1c24)C=C(Cl)C3=O	315 to 320 °C
O=c1[nH]c(CCl)c(I)c(=O)[nH]1	225 °C
CC(C)(C)c1ccc(-c2ccc(C(CCC(=O)O)=NO)cc2)cc1	170 to 172 °C
O=C(N[C@@H](Cc1ccccc1)C(=O)NCCCNC(=O)[C@H](Cc1ccccc1)NC(=O)OCc1ccccc1)OCc1ccccc1	226 to 227 °C
COc1cc(OC)c(-c2cc3ccccc3s2)cc1C=O	134 to 136 °C
CCc1cc(C)cc(C)c1C1C(=O)N2CCN(OC)CCN2C1=O	213 to 215 °C
Cc1cccc(CNc2nc(NC[C@@H](C)O)nc3c2ncn3C(C)C)c1O	145 to 147 °C
CC(C)(O)C#Cc1ccc(C(=C2CC(C)(C)CC(C)(C)C2)c2ccc(O)cc2)cc1	186 to 187 °C
COc1ccc(CS(=O)(=O)C(C)(Cc2ccccc2)C(=O)N(O)O)cc1 (centres undefined)	58 to 59 °C
